Test results as given in patent US4847290A, “Delta 1-thc-7-oic acid and analgesic and anti-inflammatory agents” (priority 1987, dated 1989).
Several values for one entry are separate records, joined by “and”; a condition that tells them apart may be missing. Identical values can stand only once. Entries after “also recorded” stand apart in the source; their conditions may differ. Like-named read-outs stand apart in the source and are kept apart here.

How the values were obtained:
[1] = design: species or system mouse (Charles River CD-1); conditions: mouse, in vivo
[2] = humans; cited from earlier work
[3] = rhesus monkey; cited from earlier work
[4] = Mouse Carrageenan Edema Test; format: in vivo, mouse (Charles River CD-1, female); conditions: 3 h after carrageenan; for Paw Volume (edema volume): ± S.D.
Experimental: The basic experimental procedure was adapted from Sophia et al., J. Pharma. Exper. Ther. 186:646, 1973. Charles Rivier CD-1 female mice (20-25 g) were given a dose of either Δ^1 -THC-7-oic-acid, indomethacin or vehicle (control). All compounds were administered orally in a 20 ul volume of peanut oil. One hour later, 0.05 ml of a 1% solution of calcium carrageenan in saline was injected subcutaneously into the plantar surface of the right hind paw. The volume of the injected foot to the level of the lateral malleolus was measured by water displacement immediately before oral drug administration and again three hours after carrageenan injection. The difference between the two measurements was called edema volume. The effectiveness of each compound was analyzed in the following manner. For Δ^1 -THC-7-oic-acid, the mean paw volumes, before and after the metabolite was administered, were statistically compared by one-way ANOVA (analysis of variance) and Fisher PLSD Scheffe t-tests. For indomethacin, the mean paw volumes, pre- and postdrug, were statistically compared using the student's t-test. The percent inhibition of edema volume was obtained from the ratio of the predrug volume to the postdrug volume (Table II).

[5] = test system: prostaglandin synthetase system; conditions: variety of models; cited from earlier work
prostaglandin synthesis = conditions: metabolite added to culture medium prior to THC exposure; cited from earlier work
Rat Ulcerogenicity Test = format: in vivo, rat (Charles River CD); conditions: for Incidence (number of rats with lesions/total tested) / Mean Score of gastric mucosal lesions: stomach tube, 1 h; for Mean Score of gastric mucosal lesions: scale 0 (normal mucosa) to 3 (erosions longer than 5 mm or confluent hemorrhages)
Experimental: Experimental groups of 5-11 rats (Charles River CD) were fasted for 24 hours before the administration of either aspirin, Δ^1 -THC-7-oic-acid or indomethacin by a rubber stomach tube (Rusch No. 8). The animals were killed 1 hour later by carbon dioxide asphyxiation. At that time, 4 ml of 10% aqueous buffered formaldehyde (formalin) was injected directly into the stomach of each animal. This in situ intraluminal fixation with formalin was especially critical for the assessment of small gastric erosions induced by aspirin since the overlying hemorrhage could easily be removed by rinsing the unfixed stomach. After 5 minutes of in situ fixation, the stomach and proximal duodenum were removed, opened along the greater curvature, pinned on a cork with mucosa upward, and immersed in 10% formaldehyde until further processing (Szabo, S. et al, J. Pharmacol. Meth. 13:59-66, 1985). The gastric lesions were then evaluated by direct visual inspection.
For comparative purposes, a semiquantitative scale of 0-3 was used to assess the extent of gastric mucosal lesions (Scabo et al., 1981, 1983). According to this scale, a score of 0 indicates a normal mucosa; 1 represents the appearance of between 1 and 4 small petechiae; 2 indicates the presence of 5 or more petechiae or hemmorhagic streaks up to 4 mm in length; 3 represents the appearance of erosions longer than 5 mm or confluent hemorrhages.

CCCCCc1cc(O)c2c(c1)OC(C)(C)[C@@H]1CCC(C(=O)O)=CC21 (single isomer, unassigned) [Δ^1 -THC-7-oic-acid]
analgesic (pain-relieving) effect / potency relative to naproxen ([1]; po): merely equivalent to that of naproxen; also recorded: exhibits analgesic activity with a potency similar to that of naproxen
behavioral activity and cardiovascular effects [2]: did not show the behavioral activity or the cardiovascular effects characteristic of the parent substance, THC
behavioral activity and cardiovascular effects [3]: did not show the behavioral activity or the cardiovascular effects characteristic of the parent substance, THC
% Inhibition of Edema Volume ([4]; 20 mg/kg oral): 53%
Paw Volume (edema volume) ([4]; 20 mg/kg oral): 9 ± 12 µL
% Inhibition of Edema Volume ([4]; 40 mg/kg oral): 79%
Paw Volume (edema volume) ([4]; 40 mg/kg oral): 4 ± 13 µL
inhibition of the prostaglandin synthetase system [5]: potent inhibitor of the prostaglandin synthetase system
antagonism of the stimulatory effect of THC on prostaglandin synthesis (prostaglandin synthesis): dramatic lowering of the stimulatory effect of THC on prostaglandin synthesis
ulcer / gastric lesion formation (in words) (Rat Ulcerogenicity Test; 50 mg/kg, directly into the stomach): did not induce ulcer formation; also recorded: does not induce the formation of gastric lesions
Incidence (number of rats with lesions/total tested) (Rat Ulcerogenicity Test; 50 mg/kg): 0/10
Mean Score of gastric mucosal lesions (Rat Ulcerogenicity Test; 50 mg/kg): 0.0

CC(=O)Oc1ccccc1C(=O)O [Aspirin]
gastric lesions / gastrointestinal damage (in words) (Rat Ulcerogenicity Test; 100 mg/kg, half the therapeutic dose, into the stomach): induced the formation of gastric lesions in each test animal; also recorded: each of the experimental animals experiences gastrointestinal damage
Incidence (number of rats with lesions/total tested) (Rat Ulcerogenicity Test; 100 mg/kg): 10/10
Mean Score of gastric mucosal lesions (Rat Ulcerogenicity Test; 100 mg/kg): 1.9

COc1ccc2c(c1)c(CC(=O)O)c(C)n2C(=O)c1ccc(Cl)cc1 [Indomethacin, reference compound]
Latency (percent change of the mean reaction time compared to predrug values) [1]: 52.7 and 51.1
% Inhibition of Edema Volume ([4]; 20 mg/kg oral): 100%
Paw Volume (edema volume) ([4]; 20 mg/kg oral): -13 ± 17 µL
Incidence (number of rats with lesions/total tested) (Rat Ulcerogenicity Test; 10 mg/kg): 2/5
Mean Score of gastric mucosal lesions (Rat Ulcerogenicity Test; 10 mg/kg): 0.6
Incidence (number of rats with lesions/total tested) (Rat Ulcerogenicity Test; 20 mg/kg): 6/11
Mean Score of gastric mucosal lesions (Rat Ulcerogenicity Test; 20 mg/kg): 0.77
